≈ marks a conversion by molar mass, not a printed value. Like-named read-outs stand apart in the source and are kept apart here.
What was measured:
THP-1 macrophages = experiment: MTT viability of THP-1 macrophages (host cell cytotoxicity); type: cell-based; details: for CC50: MTT assay
Protocol: Human monocytes, THP-1 (ATCC, TIB002) were used as host cells for Leishmania infection and to assess drug cytotoxicity. The cells were cultured at 37C, 5% CO2 in RPMI medium (ATCC) supplemented with 10% FBS, 1% Penicillin/Streptomycin and 0.05 mM of β-mercaptoethanol. Cells were used in experiments up to passage 10.
Effect of the compounds on THP-1 cell viability measured using thiazolyl blue tetrazolium bromide which measures cell metabolic activity (MTT). […] Macrophages were then treated with compounds resuspended in RPMI media (1–50 µM) for 24 hours. Media was replaced with thiazolyl blue tetrazolium bromide solubilized in RPMI media (0.5 mg/mL) and incubated at 37°C for 2 hours. The reduced formazan crystals were solubilized with isopropyl alcohol and the absorbance of the resulting solution was measured at 560 nm with a background subtraction at 670 nm. […] This process was repeated with a 72-hr incubation and extended concentration range (1–300 µM) for select compounds.

[1] = test system: Extracellular L. donovani promastigotes; experiment: Resazurin viability assay of extracellular L. donovani promastigotes; type: cell-based, Leishmania donovani; details: for Extracellular L. donovani promastigotes MIC50: 72-hour incubation
Protocol: (§1) The effect of compounds on extracellular promastigotes was evaluated using a resazurin-based assay as described previously. In short, late log phase Leishmania promastigotes were seeded in a 96 well plate at 1 x 10^5 parasites per well and treated with drugs (0.5 – 200 µM) for 72 hours at 25°C. Ten microliters of Resazurin (0.02% w/v) were added to the treated parasites to achieve a final concentration of 0.002% w/v and incubated for 24 hours. Viability of the promastigotes was assessed by fluorescence (excitation 544 nm, emission 590 nm, SpectraMax M2, Molecular Devices).

[2] = test system: Intracellular L. donovani amastigotes; experiment: Luminescence-based assay of intracellular L. donovani burden in THP-1 macrophages; type: cell-based, Leishmania donovani; details: for IC50: THP1 macrophages, luminescence assay, 72 hours of treatment, read-out: Intracellular L. donovani amastigotes Lum IC50; for Selectivity 24h LC50/ Lum IC50: host-directed effect vs cytotoxicity in THP-1
Protocol: Luminescent strains, L. donovani LV82 expressing firefly luciferase (a kind gift from Dr. Abhay Satoskar, Ohio State University) and L. mexicana (NR-51210, ATCC) expressing renilla luciferase were used to evaluate the effect of the compounds in intracellular and extracellular conditions. Wild-type L. donovani LV82 (ATCC) were used for Giemsa staining based experiments. All parasites were cultured at 25°C and 5% CO2 in M199 media (Corning) supplemented with 10% FBS, 1% Penicillin/Streptomycin, and Hemin (0.01 mg/mL), and used in experiments up to passage 15.
THP-1 cells were seeded in a 96 well plate (25,000 cells/well) overnight then differentiated with 150 nM phorbol 12-myristate 13-acetate (PMA) over 72 hours (S1 Fig). […] Briefly, promastigotes of a known cell density were resuspended in RPMI media (with 10% FBS, 1% P/S and 0.05 mM β-mercaptoethanol) and incubated with adhered THP-1 cells over 18 hours. After infection, cells were washed three times with fresh media to remove extracellular promastigotes.
Infected macrophages were then treated with compounds solubilized in DMSO ranging from 0.1-10 µM in concentrations. After 72 hours of treatment, the viability of the amastigotes within macrophages was determined using Promega firefly luminescence assay (Cat E1500) or Pierce Renilla luciferase assay (Cat 16166) for L. donovani and L. mexicana strains, respectively. Briefly, media was removed, and cells were lysed with the assay lysis buffer. The luciferase substrate was then incubated with the lysed cells for 10 min at room temperature and luminescence of live Leishmania was measured in a white opaque 96 well plate using a Biotek plate reader.

[3] = test system: Intracellular L. donovani amastigotes; experiment: Image-based Giemsa staining of intracellular L. donovani in bone marrow derived macrophages; type: cell-based, Leishmania donovani; details: 72-hour incubation
Protocol: (§2) Bone marrow derived macrophages (BMDMs) were isolated from BALB/c mice and cultured as previously described. […] Completely differentiated BMDMs are obtained after 7 days of culture with media change every 2 days. Harvested cells are seeded onto 10 mm glass cover slips at 5 x 10^5 cells/ well of a 24 well plate in DMEM media (without LCM) and allowed to adhere overnight. BMDM cells are then infected overnight with LV82 L. donovani or L. mexicana (NR-51210) at a multiplicity of infection of 10. After infection, cells were washed three times with fresh media to remove extracellular promastigotes and treated with compounds for a 72-hour incubation. BMDM cells were then washed with phosphate buffered saline, fixed with ice-cold methanol, and stained with Giemsa (5% v/v in water). The cover slips with stained cells are mounted onto glass slides and imaged on EVOS XL (100X, Thermo Fisher Scientific). Leishmania amastigotes per 100 macrophages were determined in a blinded manner.

[4] = test system: Intracellular L. mexicana amastigotes; experiment: microbe, parasite or virus in culture; type: cell-based, Leishmania mexicana; details: Leishmania mexicana, Macrophage, 72 h, bone marrow derived macrophages, Giemsa staining, 72-hour incubation
Protocol: as §2

L. donovani = details: cited from earlier work
[5] = test system: Extracellular L. mexicana promastigotes; experiment: Resazurin viability assay of extracellular L. mexicana promastigotes; type: cell-based, Leishmania mexicana; details: Leishmania mexicana, 72-hour incubation
Protocol: as §1

LV82 L. donovani = experiment: Giemsa staining of intracellular L. donovani in BMDMs from wildtype C57BL/6 or lysozyme knockout mice; type: cell-based, Leishmania donovani; details: 72-hour incubation
Text: B6.129P2-Lyz2^tm1(cre)Ifo/J mice (stock #004781, herein termed ‘Lys K/O’) were obtained from Jackson Laboratory. This strain has a nuclear-localized Cre recombinase inserted into the first coding ATG of the lysozyme 2 gene (Lyz2) which eliminates endogenous Lyz2 gene function. Wildtype C57BL6/J mice (stock #000664) were obtained as a control.
Bone marrow derived macrophages (BMDMs) were isolated from both mice and cultured as described above in “Image-based Evaluation of Intracellular Anti-Leishmanial Activity”. BMDMs were seeded onto glass cover slips, infected with LV82 L. donovani at a multiplicity of infection of 1:10. Cells were washed to remove extracellular promastigotes and treated with compounds (197, amphotericin B) for a 72-hour incubation. BMDM cells were then washed with phosphate buffered saline, fixed with ice-cold methanol, and stained with Giemsa (5% v/v in water). The cover slips with stained cells are mounted onto glass slides and imaged on EVOS XL (100X, Thermo Fisher Scientific). Leishmania amastigotes per 100 macrophages were determined in a blinded manner.

[6] = 72-hour incubation, read-out: 72 hr viability of THP-1 macrophages LC50
[7] = read-out: 24 hr viability of THP-1 macrophages 24h LC50, 24-hour incubation

## FC(F)(F)c1ccc(-c2ccc(-c3cc(C(F)(F)F)nn3-c3ccc(NC4CCNC4)cc3)cc2)cc1 (racemic) [Compound 25]
THP-1 macrophages; [6]
  CC50: 6.3 µM
THP-1 macrophages; [7]
  CC50: 28.9 µM
[1]
  Extracellular L. donovani promastigotes MIC50: 2.1 µM
[2]
  IC50: 0.7 µM
[3]
  IC50: 2.5 µM

## NCC(=O)Nc1ccc(-n2nc(C(F)(F)F)cc2-c2ccc3c(ccc4ccccc43)c2)cc1 [AR-12, reference compound]
[4]
  IC50: 1.5 µM
L. donovani
  direct effect on the promastigote: no direct effect
L. donovani; in vitro and in vivo
  parasite burden of L. donovani in infected macrophages: decrease the parasite burden
[5]
  MIC50: 15.1 µM (≈ 6.95 µg/mL)

## C[C@@H]1[C@H](O)[C@@H](C)/C=C/C=C/C=C/C=C/C=C/C=C/C=C/[C@H](O[C@@H]2O[C@H](C)[C@@H](O)[C@H](N)[C@@H]2O)C[C@@H]2O[C@](O)(C[C@@H](O)C[C@@H](O)[C@H](O)CC[C@@H](O)C[C@@H](O)CC(=O)O[C@H]1C)C[C@H](O)[C@H]2C(=O)O [Amphotericin B, reference compound]
LV82 L. donovani
  anti-leishmanial activity in WT and Lys K/O BMDMs: retained its anti-leishmanial activity in both WT and Lys K/O BMDMs

## Nc1ccc(CNC2CCN(c3ccc(-n4nc(C(F)(F)F)cc4-c4ccc(-c5ccc(C(F)(F)F)cc5)cc4)cc3)C2)cc1 (stereo not drawn) [Compound 23]
THP-1 macrophages; [6]
  CC50: 6.9 µM
THP-1 macrophages; [7]
  CC50: 5.8 µM
[1]
  Extracellular L. donovani promastigotes MIC50: 4.0 µM
[2]
  IC50: 0.4 µM
[3]
  IC50: 0.9 µM

## CC(C)(C)C#Cc1ccc(-c2cc(C(F)(F)F)nn2-c2ccc(N3CCNCC3)cc2)cc1 [Compound 44]
THP-1 macrophages; [6]
  CC50: 14.5 µM
THP-1 macrophages; [7]
  CC50: 7.4 µM
[1]
  Extracellular L. donovani promastigotes MIC50: 1.9 µM
[2]
  IC50: 0.9 µM
[3]
  IC50: 1 µM

## NCC(=O)Nc1ccc(-n2cc(C(F)(F)F)nc2-c2ccc(-c3ccccc3)cc2)cc1 [Compound 50]
THP-1 macrophages; [6]
  CC50: 42.7 µM
THP-1 macrophages; [7]
  CC50: 23.5 µM
[1]
  Extracellular L. donovani promastigotes MIC50: 14.6 µM
[2]
  IC50: 1.5 µM
[3]
  IC50: 9.1 µM

## N#Cc1cccc(CN2CCC(Nc3ccc(-n4nc(C(F)(F)F)cc4-c4ccc(-c5ccc(C(F)(F)F)cc5)cc4)cc3)C2)c1 (stereo not drawn) [Compound 53]
THP-1 macrophages; 72 hr incubation up to 300µM
  reduction in macrophage viability: Neither compound had any reduction
[1]; for 53 strain not specified
  direct effects on extracellular promastigote viability: no direct effects
[2]
  Selectivity 24h LC50/ Lum IC50: >112.6
[5]
  MIC50: > 200 µM

## O=C(Nc1ccc(-n2cc(C(F)(F)F)nc2-c2ccc(-c3ccccc3)cc2)cc1)C1CCN(Cc2ccccc2)C1 (stereo not drawn) [Compound 86]
THP-1 macrophages; [6]
  CC50: 8.2 µM
THP-1 macrophages; [7]
  CC50: 21.9 µM
[1]
  Extracellular L. donovani promastigotes MIC50: 3.2 µM
[2]
  IC50: 1.4 µM
[3]
  IC50: 0.6 µM

## Oc1ccccc1CN1CCC(Nc2ccc(-n3nc(C(F)(F)F)cc3-c3ccc(-c4ccc(C(F)(F)F)cc4)cc3)cc2)C1 (stereo not drawn) [Compound 91]
THP-1 macrophages; [6]
  CC50: 53.4 µM
THP-1 macrophages; [7]
  CC50: > 50 µM
[1]
  Extracellular L. donovani promastigotes MIC50: 56.3 µM
[2]
  IC50: 1.4 µM
[3]
  IC50: 2.4 µM

## N[C@@H]1CCN(c2ccc(-n3nc(C(F)(F)F)cc3-c3ccc(-c4ccc(C(F)(F)F)cc4)cc3)cc2)C1 [Compound 129]
THP-1 macrophages; [6]
  CC50: 6.2 µM
THP-1 macrophages; [7]
  CC50: 6.3 µM
[1]
  Extracellular L. donovani promastigotes MIC50: 1.7 µM
[2]
  IC50: 0.1 µM
[3]
  IC50: 0.4 µM

## N[C@H]1CCN(c2ccc(-n3nc(C(F)(F)F)cc3-c3ccc(-c4ccc(C(F)(F)F)cc4)cc3)cc2)C1 [Compound 130]
THP-1 macrophages; [6]
  CC50: 6.4 µM
THP-1 macrophages; [7]
  CC50: 4.2 µM
[1]
  Extracellular L. donovani promastigotes MIC50: 2.1 µM
[2]
  IC50: 0.2 µM
[3]
  IC50: 1.6 µM

## NC1CCN(c2ccc(-n3nncc3-c3ccc(C(F)(F)F)cc3)cc2)C1 (stereo not drawn) [Compound 134]
[4]
  IC50: 0.8 µM
[2]
  Selectivity 24h LC50/ Lum IC50: 42.1
[5]
  MIC50: 16.5 µM (≈ 6.16 µg/mL)

## NCC(=O)Nc1ccc(-n2ccnc2-c2ccc(-c3ccc(C(F)(F)F)cc3)cc2)cc1 [Compound 158]
THP-1 macrophages; [6]
  CC50: 16.5 µM
THP-1 macrophages; [7]
  CC50: 16 µM
[1]
  Extracellular L. donovani promastigotes MIC50: 4.6 µM
[2]
  IC50: 0.2 µM
[2]; imidazole series
  intracellular activity (primary screen): retaining potent intracellular activity
[3]
  IC50: 0.6 µM

## Oc1ccc(CNC2CCN(c3ccc(-n4nc(C(F)(F)F)cc4C4CCCCC4)cc3)CC2)cc1 [Compound 319]
THP-1 macrophages; [6]
  CC50: 7.2 µM
THP-1 macrophages; [7]
  CC50: 6.4 µM
[1]
  Extracellular L. donovani promastigotes MIC50: 0.8 µM
[2]
  IC50: 0.8 µM
[3]
  IC50: 3.4 µM

## N#Cc1ccc(CNCC(=O)Nc2ccc(-n3nc(C(F)(F)F)cc3C3CCCCC3)cc2)cc1 [Compound 354]
[4]
  IC50: 3.5 µM
[2]
  Selectivity 24h LC50/ Lum IC50: 44.9
[5]
  MIC50: 30.7 µM (≈ 14.8 µg/mL)
